Measured values published in patent US8920559B2, “Screening for solid forms by ultrasound crystallization and cocrystallization using ultrasound” (Aptuit (West Lafayette), LLC, priority 2004, dated 2014).

Assays:
[1] = White, Amber and Yellow polymorphic forms of WAY; literature (Yeadon 1985; Xiaorong He 2000); cited from earlier work
[2] = Form I vs Form II, room temperature; Zhang et al. 2002; cited from earlier work
[3] = cocrystal compared with crystals of fluoxetine HCl

SMILES	relative stability of the three forms [1]	other results
CC(=O)Nc1ccc(C)cc1[N+](=O)[O-] [yellow form, 4-methyl-2-nitroacetanilide]	more stable than the amber form	–
Cc1ccnc(NS(=O)(=O)c2ccc(N)cc2)n1 [sulfamerazine Form II, Sulfamerazine]	–	relative stability of polymorphic forms [2]: most stable form at room temperature
CC(=O)Nc1ccc(C)cc1[N+](=O)[O-] [white form, 4-methyl-2-nitroacetanilide]	most stable form	–
CNCCC(Oc1ccc(C(F)(F)F)cc1)c1ccccc1.Cl.O=C(O)c1ccccc1 (centres unmarked) [fluoxetine HCl:benzoic acid]	–	dissolution rate [3]: lower dissolution rate
CC(=O)Nc1ccc(C)cc1[N+](=O)[O-] [amber form, 4-methyl-2-nitroacetanilide]	least stable	–
